Test results: the NIST ThermoML archive (doi:10.1021/je5001389)
Numbers after ± are expanded uncertainties.

Columns and labels:
[1] = Molar enthalpy of transition or fusion; settings: DSC
[2] = DTA

| SMILES | Molar enthalpy of transition or fusion ([1]; Crystal) [kJ/mol] | Triple point temperature ([2]; Crystal) [K] | Molar enthalpy of transition or fusion ([1]; Crystal 1) [kJ/mol] | Molar enthalpy of transition or fusion ([1]; Crystal 2) [kJ/mol] | Triple point temperature ([2]; Crystal 1) [K] | Triple point temperature ([2]; Crystal 2) [K] |
| --- | --- | --- | --- | --- | --- | --- |
| c1ccc(-c2ccccc2)cc1 [biphenyl] | 18.6 ± 0.57 | 340.69 ± 0.5 | – | – | – | – |
| c1ccc2c(c1)oc1ccccc12 [dibenzo[bd]furan] | 22.3 ± 0.67 | 353.87 ± 0.5 | – | – | – | – |
| CCCCCCCCCCCCCCCCCCCCCCCCCC [hexacosane] | – | – | 68.3 ± 1.8 | 36.7 ± 1 | 329.21 ± 0.5 | 326.4 ± 0.5 |
